Measurements reported in patent publication US5366963A, “Gangliosides with immunosuppressive ceramide moieties” (The Regents of the University of California, priority 1993, dated 1994).
Where “and” joins values, the source holds several entries; their conditions need not be identical. Identical values can stand only once. Like-named read-outs stand apart in the source and are kept apart here.

Assays:
[1] = system: normal human peripheral blood mononuclear cells (PBMC); assay: cells; type: cell-based; conditions: for inhibition at 5 µM / inhibition at 10 µM / inhibition at 2.5 µM: Homo sapiens, PBMC
[2] = system: humoral or cellular immunity; conditions: Presti et al. 1989; cited from earlier work

| Compound | inhibition at 5 µM [1] [%] | inhibition at 10 µM [1] [%] | inhibition at 2.5 µM ([1]; read-out: % inhibition) [%] | cpm (3H-thymidine uptake) [1] | immunosuppressive activity (in words) [1] | inhibition at 2.5 µM ([1]; read-out: % inhibition (NI)) [%] | suppressive effect on humoral or cellular immunity in vivo [2] |
| --- | --- | --- | --- | --- | --- | --- | --- |
| CCCCCCCCCCCCC/C=C/[C@@H](O)[C@H](CO[C@@H]1O[C@H](CO)[C@@H](O[C@@H]2O[C@H](CO)[C@H](O[C@@H]3O[C@H](CO)[C@H](O)[C@H](O)[C@H]3NC(C)=O)[C@H](O[C@]3(C(=O)O)C[C@H](O)[C@@H](NC(C)=O)[C@H]([C@H](O)[C@H](O)CO)O3)[C@H]2O)[C@H](O)[C@H]1O)NC(=O)CCCCCCCCCCCCCCCCC [d18:1-C18:0 GM2] | 47 | 86 | 31 |  |  |  |  |
| CCCCCCCCCCCCC/C=C/[C@@H](O)[C@H](CO[C@@H]1O[C@H](CO)[C@@H](O[C@@H]2O[C@H](CO)[C@H](O[C@@H]3O[C@H](CO)[C@H](O)[C@H](O)[C@H]3NC(C)=O)[C@H](O[C@]3(C(=O)O)C[C@H](O)[C@@H](NC(C)=O)[C@H]([C@H](O)[C@H](O)CO)O3)[C@H]2O)[C@H](O)[C@H]1O)NC(=O)C(O)CCCCCCCCCCCCCCCC (stereo partly drawn) [d18:1-hC18:0 GM2] | 30 | 21 |  | 16.7 cpm × 10^-3 and 11.4 cpm × 10^-3 and 12.9 cpm × 10^-3 | less immunosuppressive than the non-hydroxylated species | < 0 |  |
| GM1 ganglioside |  |  |  |  |  |  | no evidence of a suppressive effect |
